From US20250144067A1, “PERSONALIZED STARVATION THERAPY FOR CANCER” (Faeth Therapeutics, Inc., priority 2021, published 2025)
Structures can show the parent of a compound that is named as a salt. Where two headings read alike, the source gives them in different places.

Tests used:
[1] = test system: NCI-H292 lung cancer cells; test: FDA drug screening, complete media vs cholesterol-free media without statin (TABLE 1); type: cell-based, human
[2] = test system: NCI-H292 lung cancer cells; test: FDA drug screening, complete media vs cholesterol-free media with simvastatin (TABLE 2); type: cell-based, human
[3] = NCI-H292 cells, cholesterol-free media without statin
[4] = complete vs cholesterol-free media, greater than 0 enhanced anti-cancer activity, about 0 neutral, below 0 antagonists
[5] = NCI-H292 cells, FDA drug library screen, cholesterol-free media with simvastatin 0.04 μM
[6] = NCI-H292 cells, FDA drug library screen, complete media
[7] = complete media minus cholesterol-free media + simvastatin, >0 enhanced anti-cancer activity, about 0 neutral, <0 antagonist
[8] = Complete minus Cholesterol-free, >0 enhanced anti-cancer activity, about 0 neutral, <0 antagonist
[9] = NCI-H292 cells, cholesterol-free media without statin, FDA drug library screen
[10] = NCI-H292 cells, complete media, FDA drug library screen
[11] = NCI-H292 cells, cholesterol-free media with simvastatin 0.04 μM, FDA drug library screen (TABLE 2)
[12] = NCI-H292 cells, complete media, FDA drug library screen (TABLE 2)
[13] = complete media minus cholesterol-free media + simvastatin (0.04 μM), >0 enhanced anti-cancer activity, about 0 neutral, <0 antagonist
[14] = Complete minus Cholesterol-free, greater than 0 enhanced anti-cancer activity, about 0 neutral, below 0 antagonists
[15] = NCI-H292 cells in cholesterol-free media without statin
[16] = NCI-H292 cells in complete media
[17] = complete media vs cholesterol-free media + simvastatin (0.04 μM), >0 enhanced anti-cancer activity, about 0 neutral, <0 antagonist
[18] = complete vs cholesterol-free media, >0 enhanced anti-cancer activity, about 0 neutral, <0 antagonist
[19] = NCI-H292 cells, cholesterol-free media with simvastatin 0.04 μM, cell growth value in FDA drug screen
[20] = NCI-H292 cells, complete media, cell growth value in FDA drug screen
[21] = Complete minus Cholesterol-free, greater than 0 enhanced anti-cancer activity, about 0 neutral, below 0 antagonist
[22] = NCI-H292 cells, FDA drug library screen, cholesterol-free media without statin
[23] = NCI-H292 cells, FDA library drug in cholesterol-free media with simvastatin 0.04 μM
[24] = NCI-H292 cells, FDA library drug in complete media
[25] = NCI-H292 cells, drug in cholesterol-free media with simvastatin 0.04 μM
[26] = NCI-H292 cells, drug in complete media

SMILES: CN1C(C(=O)Nc2ccccn2)=C(O)c2sccc2S1(=O)=O [Tenoxicam]
- Cholesterol-free [1, 3]: 1.354
- Complete ([1]; NCI-H292 cells, complete media): 0.9821
- Difference [1, 4]: −0.37
- Cholesterol-free media + simvastatin (0.04 μM) [2, 5]: 0.6836
- Complete Media [2, 6]: 0.8819
- Difference [2, 7]: 0.20

SMILES: COc1cc2nc(N3CCN(C(=O)C4CCCO4)CC3)nc(N)c2cc1OC (stereo not drawn) [Terazosin (hydrochloride dihydrate)]
- Difference [1, 8]: −0.06
- Cholesterol-free [1, 9]: 0.8804
- Complete [1, 10]: 0.821
- Cholesterol-free media + simvastatin (0.04 μM) [2, 11]: 1.029
- Complete Media [2, 12]: 0.9806
- Difference [2, 13]: −0.05

SMILES: CN(C/C=C/C#CC(C)(C)C)Cc1cccc2ccccc12 [Terbinafine hydrochloride]
- Difference [1, 14]: −0.57
- Cholesterol-free [1, 15]: 1.793
- Complete [1, 16]: 1.222
- Cholesterol-free media + simvastatin (0.04 μM) [2, 5]: 1.241
- Complete Media [2, 6]: 1.124
- Difference [2, 17]: −0.12

SMILES: CN(C/C=C/C#CC(C)(C)C)Cc1cccc2ccccc12 [Terbinafine]
- Cholesterol-free [1, 9]: 1.229
- Complete [1, 10]: 1.421
- Difference [1, 18]: 0.19
- Cholesterol-free media + simvastatin (0.04 μM) [2, 5]: 1.066
- Complete Media [2, 6]: 0.9483
- Difference [2, 17]: −0.12

SMILES: CC(C)N1CCN(c2ccc(OCC3COC(Cn4cncn4)(c4ccc(Cl)cc4Cl)O3)cc2)CC1 (stereo not drawn) [Terconazole]
- Cholesterol-free [1, 9]: 1.052
- Complete [1, 10]: 1.158
- Difference [1, 18]: 0.11
- Cholesterol-free media + simvastatin (0.04 μM) [2, 5]: 0.6294
- Complete Media [2, 6]: 1.003
- Difference [2, 7]: 0.37

SMILES: CC(C)(C)c1ccc(C(O)CCCN2CCC(C(O)(c3ccccc3)c3ccccc3)CC2)cc1 (stereo not drawn) [Terfenadine]
- Cholesterol-free [1, 3]: 1.145
- Complete ([1]; NCI-H292 cells, complete media): 0.8219
- Difference [1, 4]: −0.32
- Cholesterol-free media + simvastatin (0.04 μM) [2, 19]: 0.9762
- Complete Media [2, 20]: 1.013
- Difference [2, 7]: 0.04

SMILES: C/C(O)=C(\C#N)C(=O)Nc1ccc(C(F)(F)F)cc1 [Teriflunomide]
- Difference [1, 21]: −0.16
- Cholesterol-free [1, 22]: 1.092
- Complete [1, 6]: 0.9318
- Cholesterol-free media + simvastatin (0.04 μM) [2, 23]: 1.712
- Complete Media [2, 24]: 0.9665
- Difference [2, 17]: −0.75

SMILES: CC[C@H](C)[C@H](NC(=O)[C@H](CCC(=O)O)NC(=O)[C@H](CO)NC(=O)[C@@H](NC(=O)[C@@H](N)CO)C(C)C)C(=O)N[C@@H](CCC(N)=O)C(=O)N[C@@H](CC(C)C)C(=O)N[C@@H](CCSC)C(=O)N[C@@H](Cc1cnc[nH]1)C(=O)N[C@@H](CC(N)=O)C(=O)N[C@@H](CC(C)C)C(=O)NCC(=O)N[C@@H](CCCCN)C(=O)N[C@@H](Cc1cnc[nH]1)C(=O)N[C@@H](CC(C)C)C(=O)N[C@@H](CC(N)=O)C(=O)N[C@@H](CO)C(=O)N[C@@H](CCSC)C(=O)N[C@@H](CCC(=O)O)C(=O)N[C@@H](CCCN=C(N)N)C(=O)N[C@H](C(=O)N[C@@H](CCC(=O)O)C(=O)N[C@@H](Cc1c[nH]c2ccccc12)C(=O)N[C@@H](CC(C)C)C(=O)N[C@@H](CCCN=C(N)N)C(=O)N[C@@H](CCCCN)C(=O)N[C@@H](CCCCN)C(=O)N[C@@H](CC(C)C)C(=O)N[C@@H](CCC(N)=O)C(=O)N[C@@H](CC(=O)O)C(=O)N[C@H](C(=O)N[C@@H](Cc1cnc[nH]1)C(=O)N[C@@H](CC(N)=O)C(=O)N[C@@H](Cc1ccccc1)C(=O)O)C(C)C)C(C)C [Teriparatide]
- Difference ([1]; Complete minus Cholesterol-free, […]): −0.19
- Cholesterol-free [1, 22]: 1.061
- Complete [1, 6]: 0.8757
- Cholesterol-free media + simvastatin (0.04 μM) [2, 11]: 1.048
- Complete Media [2, 12]: 1.02
- Difference ([2]; complete media minus cholesterol-free media + simvastatin (0.04 μM), […]): −0.03

SMILES: CC1(O)CCC(C(C)(C)O)CC1 (stereo not drawn) [Terpin (hydrate)]
- Difference [1, 8]: 0.06
- Cholesterol-free [1, 9]: 0.8684
- Complete [1, 10]: 0.9288
- Cholesterol-free media + simvastatin (0.04 μM) [2, 25]: 1.474
- Complete Media [2, 26]: 1.21
- Difference [2, 17]: −0.26

SMILES: CCC(=O)O[C@H]1CC[C@H]2[C@@H]3CCC4=CC(=O)CC[C@]4(C)[C@H]3CC[C@]12C [Testosterone propionate]
- Cholesterol-free [1, 3]: 1.308
- Complete ([1]; NCI-H292 cells, complete media): 0.9212
- Difference ([1]; complete vs cholesterol-free media, […]): −0.39
- Cholesterol-free media + simvastatin (0.04 μM) [2, 23]: 1.059
- Complete Media [2, 24]: 0.7669
- Difference ([2]; complete media vs cholesterol-free media + simvastatin (0.04 μM), […]): −0.29

SMILES: COc1cc2c(cc1OC)C1CC(=O)C(CC(C)C)CN1CC2 (stereo not drawn) [Tetrabenazine]
- Cholesterol-free [1, 3]: 1.615
- Complete ([1]; NCI-H292 cells, complete media): 1.162
- Difference [1, 4]: −0.45
- Cholesterol-free media + simvastatin (0.04 μM) [2, 25]: 1.249
- Complete Media [2, 26]: 1.01
- Difference [2, 17]: −0.24

SMILES: CN(C)[C@@H]1C(O)=C(C(N)=O)C(=O)[C@@]2(O)C(O)=C3C(=O)c4c(O)cccc4[C@@](C)(O)[C@H]3C[C@@H]12 [Tetracycline (hydrochloride)]
- Cholesterol-free [1, 3]: 1.387
- Complete ([1]; NCI-H292 cells, complete media): 0.93
- Difference [1, 4]: −0.46
- Cholesterol-free media + simvastatin (0.04 μM) [2, 11]: 0.7005
- Complete Media [2, 12]: 0.7002
- Difference [2, 13]: 0.00

SMILES: C[C@H](O)[C@H](O)[C@H]1CNc2nc(N)[nH]c(=O)c2N1 [Tetrahydrobiopterin]
- Difference [1, 21]: −0.10
- Cholesterol-free [1, 22]: 0.9498
- Complete [1, 6]: 0.8545
- Cholesterol-free media + simvastatin (0.04 μM) [2, 23]: 1.389
- Complete Media [2, 24]: 1.025
- Difference [2, 17]: −0.36

SMILES: COc1cc2c(cc1OC)[C@@H]1Cc3ccc(OC)c(OC)c3CN1CC2 [Tetrahydropalmatine]
- Difference [1, 21]: −0.19
- Cholesterol-free [1, 22]: 1.084
- Complete [1, 6]: 0.8984
- Cholesterol-free media + simvastatin (0.04 μM) [2, 25]: 0.9937
- Complete Media [2, 26]: 0.7686
- Difference [2, 17]: −0.23

SMILES: c1ccc2c(c1)CCCC2C1=NCCN1 (stereo not drawn) [Tetrahydrozoline (hydrochloride)]
- Difference [1, 8]: −0.03
- Cholesterol-free [1, 9]: 0.9833
- Complete [1, 10]: 0.9541
- Cholesterol-free media + simvastatin (0.04 μM) [2, 5]: 1.06
- Complete Media [2, 6]: 0.9332
- Difference [2, 17]: −0.13

SMILES: c1ccc(C2CN3CCSC3=N2)cc1 (stereo not drawn) [Tetramisole (hydrochloride)]
- Cholesterol-free [1, 3]: 1.362
- Complete ([1]; NCI-H292 cells, complete media): 0.9185
- Difference [1, 4]: −0.44
- Cholesterol-free media + simvastatin (0.04 μM) [2, 11]: 1.011
- Complete Media [2, 12]: 0.9757
- Difference [2, 13]: −0.04

SMILES: COc1ccc2cc1Oc1ccc(cc1)C[C@H]1c3cc(c(OC)cc3CCN1C)Oc1c(OC)c(OC)cc3c1[C@H](C2)N(C)CC3 [Tetrandrine]
- Cholesterol-free [1, 9]: 0.9522
- Complete [1, 10]: 1.143
- Difference [1, 18]: 0.19
- Cholesterol-free media + simvastatin (0.04 μM) [2, 25]: 1.133
- Complete Media [2, 26]: 0.9661
- Difference [2, 17]: −0.17

SMILES: CC(C)(CO)c1cc2cc(NC(=O)C3(c4ccc5c(c4)OC(F)(F)O5)CC3)c(F)cc2n1C[C@@H](O)CO [Tezacaftor]
- Difference [1, 14]: −0.63
- Cholesterol-free [1, 15]: 1.488
- Complete [1, 16]: 0.8597
- Cholesterol-free media + simvastatin (0.04 μM) [2, 11]: 1.227
- Complete Media [2, 12]: 1.187
- Difference [2, 13]: −0.04

SMILES: O=C1CCC(N2C(=O)c3ccccc3C2=O)C(=O)N1 (stereo not drawn) [Thalidomide]
- Difference [1, 14]: −0.92
- Cholesterol-free [1, 15]: 1.865
- Complete [1, 16]: 0.9496
- Cholesterol-free media + simvastatin (0.04 μM) [2, 25]: 1.184
- Complete Media [2, 26]: 1.013
- Difference [2, 17]: −0.17

SMILES: Cn1c(=O)c2[nH]cnc2n(C)c1=O [Theophylline]
- Cholesterol-free [1, 3]: 1.592
- Complete ([1]; NCI-H292 cells, complete media): 1.176
- Difference [1, 4]: −0.42
- Cholesterol-free media + simvastatin (0.04 μM) [2, 5]: 1.182
- Complete Media [2, 6]: 1.026
- Difference [2, 17]: −0.16

SMILES: c1ccc2[nH]c(-c3cscn3)nc2c1 [Thiabendazole]
- Cholesterol-free [1, 9]: 0.802
- Complete [1, 10]: 1.484
- Difference [1, 18]: 0.68
- Cholesterol-free media + simvastatin (0.04 μM) [2, 5]: 0.9537
- Complete Media [2, 6]: 1.187
- Difference [2, 7]: 0.23

SMILES: Cc1ncc(C[n+]2csc(CCO)c2C)c(N)n1 [Thiamine (hydrochloride)]
- Difference [1, 8]: −0.20
- Cholesterol-free [1, 3]: 1.324
- Complete ([1]; NCI-H292 cells, complete media): 1.125
- Cholesterol-free media + simvastatin (0.04 μM) [2, 19]: 1.098
- Complete Media [2, 20]: 1.117
- Difference [2, 7]: 0.02

SMILES: Cc1ncc(C[n+]2csc(CCO)c2C)c(N)n1 [Thiamine monochloride]
- Difference [1, 8]: −0.23
- Cholesterol-free [1, 3]: 0.9486
- Complete ([1]; NCI-H292 cells, complete media): 0.7138
- Cholesterol-free media + simvastatin (0.04 μM) [2, 5]: 1.042
- Complete Media [2, 6]: 0.9007
- Difference [2, 17]: −0.14

SMILES: CS(=O)(=O)c1ccc([C@@H](O)[C@@H](CO)NC(=O)C(Cl)Cl)cc1 [Thiamphenicol]
- Cholesterol-free [1, 9]: 0.8085
- Complete [1, 10]: 0.9105
- Difference [1, 18]: 0.10
- Cholesterol-free media + simvastatin (0.04 μM) [2, 5]: 0.911
- Complete Media [2, 6]: 0.7958
- Difference [2, 17]: −0.12

SMILES: S=P(N1CC1)(N1CC1)N1CC1 [Thio-TEPA]
- Cholesterol-free [1]: 0.9267
- Complete [1]: 0.7941
- Difference [1]: −0.13
- Cholesterol-free media + simvastatin (0.04 μM) [2]: 0.6864
- Complete Media [2]: 0.8177
- Difference [2]: 0.13
